Patent publication US20100152137A1, “Alkylphospholipids as active agents for prevention of plant pathogens” (KTB-Tumorforschungs GMBH, priority 2006, published 2010)
Several values for one entry are separate records, joined by “and”; a condition that tells them apart may be missing. Equal entries are not always repeated.

Assays:
[1] = tested on: Plasmopara viticola; assay: Downy mildew control on intact greenhouse plants; type: in vivo, Plasmopara viticola on Vitis vinifera cv. Müller-Thurgau; conditions: for II (%) per REP / II (%) per variant: infestation intensity; for RW II IF (%): relation value for infestation frequency vs control; for RW II II (%): relation value for infestation intensity vs control
Description: Greenhouse plants of the variety Müller-Thurgau (Vitis vinifera cv. Müller-Thurgau) served as the starting material. At least three plants each in the ten leaf stage were employed per test solution. HePC was applied (sprayed with the application device System Schachtner) in concentrations of 0.01%, 0.05% and 0.1%. In an additional experiment with 0.01% HePC, the same concentration of HePC (0.01%) was additionally applied one week before (2×HePC). After 24 h from the application of the test solutions, the plants were infected with the pathogen causing downy mildew (Plasmopara viticola). Six days after the infection, the sporulation of Plasmopara viticola was induced, and then the infestation intensity was established.
Thus, the percent proportion of the sporulating surface area relative to the entire surface area of each leaf was visually observed. For each substance and concentration, the leaves of at least three plants were evaluated, and the mean value determined. The application of distilled water served as a negative control. The experiment was repeated twice.

[2] = tested on: Plasmopara viticola; assay: Downy mildew control on Gutedel seedlings; type: in vivo, Plasmopara viticola on Gutedel seedlings; conditions: for Infestation incidence (%) / Infestation intensity (%): evaluated after 10 days
Description: The examinations were performed with seedlings of the variant “Gutedel”, the seedlings having 3-4 leaves and a height of 8-12 cm at the time of application. HePC (0.01 and 0.001%) was applied with a rotary plate automated spraying device (about 1.2 bar spraying pressure) for 20 seconds. For each concentration, 6 plants were treated, which also applied to the positive control (infection, no treatment) and negative control (no infection, no treatment).
After the leaves had dried, the plants were infected/sprayed with Plasmopara viticola (spore suspension (100,000 spores/ml)) and further kept at 21° C. and 100% RH in a cycle of 16 h of day and 8 h of night.
The proportion of leaves infested (incidence) and the intensity of infestation, i.e., the infested proportion of the leaf areas, were evaluated.

[3] = tested on: Plasmopara viticola; assay: Grapevine leaf disk test against downy mildew; type: in vivo, Plasmopara viticola on Vitis vinifera cv. Müller-Thurgau; conditions: for Average infestation intensity: five-point scale 1-5, per experiment; for No. of leaf disks at scale point 1 (no sporulation) / No. of leaf disks at scale point 2 / No. of leaf disks at scale point 3 / No. of leaf disks at scale point 4 / No. of leaf disks at scale point 5 (sporulation all over the surface): six days after infection
Description: Greenhouse plants of the variety Müller-Thurgau (Vitis vinifera cv. Müller-Thurgau) served as the starting material. Young leaves were sterilized on the surface with 70% (v/v) ethanol. Subsequently, leaf disks of 16 mm in diameter were punched out and placed upside down onto water agar (0.8%) in transparent boxes. One drop (about 60 μl) of an aqueous test solution (concentrations employed, see FIG. 1) was applied 24 h before the infection with the pathogen causing downy mildew (Plasmopara viticola), and the leaf disks were incubated at 25° C. (16 h of white light 300 μmol m^−2 s^−1; 8 h of dark) and >95% relative humidity. After 24 h, the drop was removed and replaced by a drop containing spores of the pathogen (about 50 μl of an aqueous suspension containing 2×10^5 sporangia/mil). The infestation intensity was determined six days after the infection.
The infestation intensity was determined by means of a five-point scale ranging from 1 (no sporulation) to 5 (sporulation all over the surface). For each substance and concentration, 10 leaf disks per experiment were evaluated, and the mean value from at least three independent parallel experiments was determined. Distilled water and phosphite as negative and positive controls, respectively.

[4] = tested on: pathogen causing downy mildew of grapevine; assay: Outdoor test in the vineyard under practical conditions; type: in vivo, Müller-Thurgau grapevine; conditions: HePC 0.2%, no artificial infection, status Jun. 19, 2007
Text: Currently (vegetation period of 2007), HePC (0.2%) is being tested in an outdoor test. In these experiments, the plants in a commercial vineyard (Müller-Thurgau, age about 15 years) are not artificially infected. For this experiment, 3×6 plants (different locations in the vineyard) were employed. In addition, a corresponding untreated control is observed. […] Thus, to date, it has not been possible to observe infestation of the plants treated with HePC, despite of the currently sticky and humid weather (optimum infection conditions) and the very early start of the vegetation period in this year. In contrast, infestation of the control has already been observed.

[5] = tested on: single cell culture of Vitis vinifera cv. Pinot noir; assay: pH change (alcalinization) in the medium of a single cell culture of grapevine; type: cell-based
Text: A response of plant cells to substances that can induce resistance in plants is to open ion channels in the cell membrane. Thereupon, protons flow into the interior of the cell, which causes alcalinization of the medium surrounding the cell. This temporary alcalinization has been measured.
Greenhouse plants of the variety Pinot noir (Vitis vinifera cv. Pinot noir) served as the starting material. A callus culture was started first from young shoots. Thus, the plant parts were cut into pieces about 1-2 cm in size, washed in 70% (v/v) ethanol and sterilized in 3.5% (w/v) NaOCl solution for about 2 min. The sterilized tissue pieces were transferred to solid MS nutrient medium (Murashige, T. and Skoog, F., Physiol. Plant, 18: 100-127 (1962)) and slightly pushed into the agar, so that the cuts came into contact with the medium. The formation of callus tissue occurred at 23° C. in a phytochamber (16 h of white light 300 μmol m^−2 s^−1; 8 h of dark; >95% relative humidity). At the cuts, calluses formed, which were repeatedly transferred to a new medium in a sterile manner after 4-6 weeks.
Starting from strongly growing callus cultures, single cell cultures were started. Thus, cells were passaged under sterile conditions from callus tissue to liquid MS nutrient medium. The cell cultures were grown in a temperature constant room at 23° C. on a rotary shaker (120 rpm). In regular passage cycles of 4 days, the cell cultures were admixed with 40 ml of new liquid MS nutrient medium and distributed in two equal parts of about 40 ml to two 250 ml Erlenmeyer flasks.
For measuring the pH of the medium, 10 ml of a 2 days old cell culture was added to a small rolled rim vial. The rolled rim vial was placed onto a shaker, and a pH electrode was immersed into the cell culture. The electrode was fixed to be constantly washed round by the cell culture. The revolutions per minute of the shaker was 140 rpm. After the measured pH had stabilized, the substance to be tested was added, and the change of pH was continuously recorded with a plotter.

[6] = HePC 0.05%, infestation frequency

SMILES: CCCCCCCCCCCCCCCCOP(=O)([O-])OCC[N+](C)(C)C [HePC, hexadecylphosphocholine]
- IF (%) per variant ([1]; HePC 0.01% applied once, infestation frequency): 53.4%
- II (%) per REP ([1]; HePC 0.01% applied once): 1.67% and 2.89% and 4.00%
- II (%) per variant ([1]; HePC 0.01% applied once): 2.85%
- RW II IF (%) ([1]; HePC 0.01% applied once): 23.6% and 23.56%
- RW II II (%) ([1]; HePC 0.01% applied once): 73.2% and 73.16%
- II (%) per REP ([1]; HePC 0.01%, 2 x (also applied one week before)): 0.20% and 0.80% and 0.11%
- IF (%) per variant ([1]; HePC 0.01%, 2 x, infestation frequency): 23.7%
- II (%) per variant ([1]; HePC 0.01%, 2 x): 0.37%
- RW II IF (%) ([1]; HePC 0.01%, 2 x): 66.1% and 66.09%
- RW II II (%) ([1]; HePC 0.01%, 2 x): 96.5% and 96.51%
- IF (%) per REP [1, 6]: 33.3% and 44.4%
- IF (%) per variant [1, 6]: 37.0%
- II (%) per REP ([1]; HePC 0.05%): 2.22% and 1.33% and 0.33%
- II (%) per variant ([1]; HePC 0.05%): 1.30%
- RW II IF (%) ([1]; HePC 0.05%): 47.0% and 47.02%
- RW II II (%) ([1]; HePC 0.05%): 87.8%
- IF (%) per variant ([1]; HePC 0.1%, infestation frequency): 25.0%
- II (%) per REP ([1]; HePC 0.1%): 0.11% and 0.33% and 0.89%
- II (%) per variant ([1]; HePC 0.1%): 0.36%
- RW II IF (%) ([1]; HePC 0.1%): 64.2% and 64.24%
- RW II II (%) ([1]; HePC 0.1%): 96.6%
- infestation increased by a factor ([2]; 0.001% HePC compared with 0.01% HePC): 10
- Infestation incidence (%) ([2]; HePC 0.001%): 43%
- Infestation intensity (%) ([2]; HePC 0.001%): 33.9%
- leaves infested as compared to the positive control ([2]; HePC 0.01%): 25%
- Infestation incidence (%) ([2]; HePC 0.01%): 13%
- Infestation intensity (%) ([2]; HePC 0.01%): 3.6%
- Average infestation intensity ([3]; HePC 0.0001%): 5.0 and 2.9
- No. of leaf disks at scale point 1 (no sporulation) ([3]; HePC 0.0001%): 0
- Average infestation intensity ([3]; HePC 0.01%): 1.0
- No. of leaf disks at scale point 1 (no sporulation) ([3]; HePC 0.01%): 9
- No. of leaf disks at scale point 2 ([3]; HePC 0.01%): 0
- No. of leaf disks at scale point 3 ([3]; HePC 0.01%): 0
- No. of leaf disks at scale point 4 ([3]; HePC 0.01%): 0
- No. of leaf disks at scale point 5 (sporulation all over the surface) ([3]; HePC 0.01%): 0
- Average infestation intensity ([3]; HePC 0.1%): 1.0
- No. of leaf disks at scale point 1 (no sporulation) ([3]; HePC 0.1%): 9
- No. of leaf disks at scale point 2 ([3]; HePC 0.1%): 0
- No. of leaf disks at scale point 3 ([3]; HePC 0.1%): 0
- No. of leaf disks at scale point 4 ([3]; HePC 0.1%): 0
- No. of leaf disks at scale point 5 (sporulation all over the surface) ([3]; HePC 0.1%): 0
- prevention of pathogen infestation [4]: good effect
- Δ (pH) ([5]; HePC final concentration 0.00025%): 0.03
- Δ (pH) ([5]; HePC final concentration 0.00050%): 0.16
- Δ (pH) ([5]; HePC final concentration 0.00075%): 0.25
- Δ (pH) ([5]; HePC final concentration 0.00100% (w/v)): 0.41
